Data: patent US8952192B2, “Phosphorylated and branched dihydroxy-pentane-dione (DPD) analogs as quorum sensing inhibitors in bacteria” (University of Maryland, College Park, priority 2011, dated 2015)

Key:
[1] = tested on: S. typhimurium; assay: DPD analogs and representative bacterial species affected (Table 1); assay type: cell-based; set-up: key: x: DPD Analogs and representative bacterial species affected
[2] = tested on: V. harveyi; assay: as above; assay type: cell-based; set-up: key: x: DPD Analogs and representative bacterial species affected
[3] = tested on: pre-formed E. coli biofilms (K-12 MG1655); assay: Effects on pre-formed E. coli biofilms (microfluidic flow cell, COMSTAT, optical density); assay type: cell-based
Protocol: (§1) The E. coli biofilms were formed using the strain K-12 MG1655 ATCC(47076). P. aeruginosa biofilms were formed using wild type strain PAO1. For both strains, overnight cultures were diluted to an OD600 of 0.25, introduced into the microfluidic channel, and incubated with no flow at 37° C. for 2 h. LB (Luria Bertani) growth medium was then continuously flowed into the device at a rate of 10 μL/hr. As needed, this medium was supplemented with various concentrations of analog or antibiotic at specified times. In studies of biofilm inhibition, after 2 hours of cell incubation, the analog diluted in LB medium is flown into the microfluidic channel for 48 hours at 10 μL/hr. In studies of effects on pre-formed biofilms, LB is introduced over the cells at 10 μL/hr for a period of 36 to 48 hours to yield stable biofilms. Then, the analog or analog-antibiotic combination was introduced for an additional 36 to 48 hours.
(§2) Biofilms were stained in situ for microscopy. They were first treated with a Live/Dead bacterial labeling kit (Invitrogen #L7012) in which two labeling components were mixed in a 1:1 ratio to a final volume of 10 μL. The dye was introduced into the channel at 10 μL/hr, the same flow rate as during biofilm growth. This treatment was then followed by 10 μL/hr of a 100 μg/mL calcofluor (Fluorescence Brightener 28, Sigma #F3543) solution for labeling polysaccharides contained in the biofilm matrix. The dyes are fixed by flowing in 3% paraformaldehyde at the same flow rate.
(§3) Labeled samples are imaged using a confocal microscope (Zeiss LSM710). For unpatterned coverslips, Z-stacks were obtained at 7 points in each microfluidic channel, each stack was comprised of 150 slices. For patterned coverslips used while measuring the optical density of the biofilms, two stacks were obtained in each channel (i.e. one at each pinhole). The image stacks were analyzed using COMSTAT, which provides morphological characteristics. Average biofilm thickness and biomass were averaged over the image stacks obtained at each of these 7 data points in the microfluidic channel. Additionally, surface reconstructions of the biofilms were created using Imaris (Bitplane) to aid in visualization of the resulting structures.
(§4) The data corresponding to the change in optical density of the biofilms were obtained from the photodiodes using the standard methodologies. Data for each channel (the average of the response of the two photodiodes) was normalized with respect to the optical density at 48 hours; this method reflects that as of 48 hours, the biofilms have been grown under identical conditions although their optical density values may not be identical. Additionally, since the optical density data itself fluctuates as the biofilm grows, the data for each curve was fitted using a Churchill model (Churchill et al, 1972), represented by log N=[f1^−1+f2^−1]^−1 (1)

[4] = tested on: E. coli; assay: DPD analogs and representative bacterial species affected (Table 1); assay type: cell-based; set-up: key: x: DPD Analogs and representative bacterial species affected
[5] = tested on: E. coli W3110 pCT6; assay: Trispecies synthetic ecosystem: AI-2 stimulated GFP expression, flow cytometry; assay type: cell-based; details: trispecies co-culture, flow cytometry after 8 hours; 60.7% without analog
Excerpt: (§5) To investigate the effect of the DPD analogs in a mixed bacterial environment, a synthetic ecosystem composed of three different bacterial populations was assembled. Specifically, S. typhimurium MET708, V. harveyi BB170 and E. coli W3110 (pCT6), each luxS^+ (Table 2), and each producing their native AI-2 were co-cultured in the same tubes. By design, each species was selected so that a different reporter probe would indicate the specific bacterium's QS response: S. typhimurium (MET708) expresses β-galactosidase; V. harveyi (BB170) elicits bioluminescience; and E. coli (W331) are engineered to synthesize GFP. In this way, their responses can be differentiated and quantified in response to AI-2.
(§6) The S. typhimurium MET708, V. harveyi BB170 and E. coli W3110 pCT6 were each cultured separately overnight in LM medium supplemented with the appropriate antibiotic. […] The V. harveyi luminescence response was measured after 2.5 hours. The S. typhimurium lacZ (β-galactosidase) activity was measured after 4 hours. The E. coli response was determined after 8 hours, by fixing the cells with 1:1 cold 4% paraformaldehyde and using flow cytometric analysis. Samples were analyzed by flow cytometery (FACS Canto II, BD 394 Biosciences), with 20,000 gated events analyzed per sample.

[6] = tested on: E. coli biofilms (K-12 MG1655); assay: Biofilm maturation in the presence of AI-2 analog (microfluidic flow cell, confocal microscopy, COMSTAT); assay type: cell-based
Protocol: as §1, §2, §3

[7] = tested on: S. typhimurium MET708; assay: Trispecies synthetic ecosystem (S. typhimurium, V. harveyi, E. coli): β-galactosidase activity; assay type: cell-based; details: trispecies co-culture, lacZ activity after 4 hours
Excerpt: as §5, §6

[8] = tested on: V. harveyi BB170; assay: QS response (bioluminescence), trispecies synthetic ecosystem; assay type: cell-based; details: 40 μM, LM media
Protocol: The effect of isobutyl-DPD or isopropyl-DPD on QS associated bioluminescence production by V. harveyi was recorded by measuring the light production from reporter strain, V. harveyi BB170. The analogs were added at concentrations of (20 μM or 40 μM) to V. harveyi BB170 which was assayed as previously described.
The S. typhimurium MET708, V. harveyi BB170 and E. coli W3110 pCT6 were each cultured separately overnight in LM medium supplemented with the appropriate antibiotic. V. harveyi BB170, S. typhimurium MET708 and E. coli MDAI-2 were diluted (1:4:8), respectively, into a single 1 ml volume of fresh LM medium without antibiotics. The co-culture was supplemented with either 20 μM or 40 μM analog initially and again after 3 and 5 hours of growth. The V. harveyi luminescence response was measured after 2.5 hours. The S. typhimurium lacZ (β-galactosidase) activity was measured after 4 hours. The E. coli response was determined after 8 hours, by fixing the cells with 1:1 cold 4% paraformaldehyde and using flow cytometric analysis. Samples were analyzed by flow cytometery (FACS Canto II, BD 394 Biosciences), with 20,000 gated events analyzed per sample.

[9] = tested on: pre-formed P. aeruginosa biofilms (PAO1); assay: Effects on pre-formed P. aeruginosa biofilms (microfluidic flow cell, COMSTAT, optical density); assay type: cell-based
Protocol: as §1, §2, §3, §4

[10] = tested on: P. aeruginosa; assay: DPD analogs and representative bacterial species affected (Table 1); assay type: cell-based; set-up: key: x: DPD Analogs and representative bacterial species affected
[11] = tested on: lsr expression in E. coli (lsr-lacZ reporter strains); assay: QS response (lsr expression): AI-2 dependent β-galactosidase production, Miller assay; assay type: cell-based, Escherichia coli; details: E. coli ZK126 pLW11 LW8 (luxS+, lsrR−), 20 μM analog
[12] = 100 μM isobutyl-DPD combined with gentamicin 5 μg/ml

CC(C)CC(=O)C(=O)[C@@H](O)CO [Isobutyl-DPD, isobutyl-DPD]
bacterial species affected: S. typhimurium [1]: x | bacterial species affected: V. harveyi [2]: x | average biofilm thickness ([3]; 40 μM isobutyl-DPD combined with gentamicin 5 μg/ml): 6 μm | average biofilm thickness [3, 12]: 2 μm | effect on biofilm biomass, in words [3, 12]: nearly complete removal of biomass | reduction in biofilm thickness [3, 12]: more than 80% | course of biofilm optical density after 48 h, in words ([3]; isobutyl-DPD combined with gentamicin, continuous optical density measurement): reversed biofilm growth | bacterial species affected: E. coli [4]: x | QS positive (green, GFP) cells of the E. coli population after analog addition [5]: 0.7% | average biofilm biomass ([6]; 40 μM, 48 h, LB only 14 μm^3/μm^2): 3.5 μm^3/μm^2 | average biofilm thickness ([6]; 40 μM, 48 h, LB only 22 μm): 7 μm | inhibition of biofilm growth ([6]; 40 μM, 48 h continuous exposure in LB): ~70% | effect on biofilm thickness of increasing concentration, in words ([6]; 100 μM versus 40 μM): no further inhibitory effect | decrease of S. typhimurium β-galactosidase activity [7]: 4 fold | decrease of bioluminescence in V. harveyi [8]: 33%

O=C(C(=O)C(O)CO)c1ccccc1 (stereo not shown) [Phenyl-DPD, Phenyl DPD]
biofilm reduction ([9]; 100 uM phenyl DPD alone): about 40% | biofilm reduction ([9]; gentamicin and 100 uM phenyl DPD combined): ~100% | biofilm biomass ([9]; phenyl-DPD 100 μM combined with gentamicin 5 μg/ml, untreated 15 μm^3/μm^2): < 2 μm^3/μm^2 | biofilm thickness ([9]; phenyl-DPD 100 μM combined with gentamicin 5 μg/ml, untreated 26 μm): 2 μm | course of biofilm optical density after 48 h, in words ([9]; phenyl-DPD combined with gentamicin, continuous optical density measurement): reversed biofilm growth | bacterial species affected: P. aeruginosa [10]: x | difference in lsr expression versus control in lsrR null mutant [11]: exception
